According to ChEMBL document CHEMBL3132769, “Fragment growing to retain or alter the selectivity of anchored kinase hinge-binding fragments” (Medchemcomm, 2014):

Key:
[1] = target: Tyrosine-protein kinase Lyn (Homo sapiens) (UniProt P07948); test: Inhibition of human full length LYN expressed in baculovirus assessed as substrate phosphorylation using fluorescence-labelled peptides as substrate at 0.2 uM after 90 mins by microfluidic peptide phosphorylation assay
[2] = target: Serine/threonine-protein kinase MARK1 (Homo sapiens) (UniProt Q9P0L2); test: Inhibition of human full length MARK1 expressed in baculovirus assessed as substrate phosphorylation using fluorescence-labelled peptides as substrate at 2 uM after 90 mins by microfluidic peptide phosphorylation assay
Serine/threonine-protein kinase MARK1 (Homo sapiens), sequence (Q9P0L2 whole entry, looked up): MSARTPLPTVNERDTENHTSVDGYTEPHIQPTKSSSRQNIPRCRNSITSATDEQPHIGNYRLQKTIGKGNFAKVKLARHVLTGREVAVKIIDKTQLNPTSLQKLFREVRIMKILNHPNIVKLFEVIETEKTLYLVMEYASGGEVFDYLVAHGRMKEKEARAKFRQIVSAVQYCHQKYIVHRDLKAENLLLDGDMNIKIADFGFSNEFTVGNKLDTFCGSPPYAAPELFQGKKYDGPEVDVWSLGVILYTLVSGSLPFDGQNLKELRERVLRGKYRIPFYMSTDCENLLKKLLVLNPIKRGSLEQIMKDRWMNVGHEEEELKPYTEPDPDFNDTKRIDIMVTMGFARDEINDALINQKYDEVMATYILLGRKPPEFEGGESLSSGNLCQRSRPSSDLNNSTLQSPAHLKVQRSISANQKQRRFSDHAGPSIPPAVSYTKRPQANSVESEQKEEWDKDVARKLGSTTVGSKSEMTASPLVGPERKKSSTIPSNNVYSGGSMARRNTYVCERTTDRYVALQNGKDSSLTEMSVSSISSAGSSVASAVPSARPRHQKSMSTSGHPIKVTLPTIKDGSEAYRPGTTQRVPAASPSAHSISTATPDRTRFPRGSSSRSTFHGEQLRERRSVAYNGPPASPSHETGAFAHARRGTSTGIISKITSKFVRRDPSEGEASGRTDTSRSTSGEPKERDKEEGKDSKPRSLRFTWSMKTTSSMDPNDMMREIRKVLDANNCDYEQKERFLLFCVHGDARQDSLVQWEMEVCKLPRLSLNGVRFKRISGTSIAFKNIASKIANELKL

[3] = target: T1, Inhibitor of nuclear factor kappa-B kinase subunit beta (Homo sapiens) (UniProt O14920); test: Inhibition of human full length IKK beta expressed in baculovirus assessed as substrate phosphorylation using fluorescence-labelled peptides as substrate at […] after 90 mins by microfluidic peptide phosphorylation assay
T1 sequence (whole entry): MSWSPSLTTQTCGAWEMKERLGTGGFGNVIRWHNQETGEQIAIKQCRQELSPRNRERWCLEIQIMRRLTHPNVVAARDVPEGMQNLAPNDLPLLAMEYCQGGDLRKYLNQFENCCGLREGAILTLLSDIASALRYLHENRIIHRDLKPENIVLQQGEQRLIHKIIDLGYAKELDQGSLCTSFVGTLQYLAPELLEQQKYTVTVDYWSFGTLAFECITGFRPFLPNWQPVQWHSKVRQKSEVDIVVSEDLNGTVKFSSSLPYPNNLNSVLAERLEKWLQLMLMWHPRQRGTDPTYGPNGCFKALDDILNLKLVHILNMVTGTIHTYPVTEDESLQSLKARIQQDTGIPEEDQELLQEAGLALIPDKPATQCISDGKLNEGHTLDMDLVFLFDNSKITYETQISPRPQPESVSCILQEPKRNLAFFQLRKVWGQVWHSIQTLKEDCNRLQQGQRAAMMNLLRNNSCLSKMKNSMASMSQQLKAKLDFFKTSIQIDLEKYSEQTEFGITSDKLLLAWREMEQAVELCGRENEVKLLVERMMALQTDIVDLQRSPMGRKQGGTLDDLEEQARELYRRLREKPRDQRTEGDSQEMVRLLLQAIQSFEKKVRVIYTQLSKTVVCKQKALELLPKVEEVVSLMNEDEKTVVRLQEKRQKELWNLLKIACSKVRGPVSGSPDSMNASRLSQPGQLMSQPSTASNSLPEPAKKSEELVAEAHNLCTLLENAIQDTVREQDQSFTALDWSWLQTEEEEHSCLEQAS

[4] = target: MAP kinase p38 (Homo sapiens) (UniProt O15264+Q15759+Q16539+P53778); test: Inhibition of human full length p38 beta2 expressed in Escherichia coli cell assessed as substrate phosphorylation using fluorescence-labelled peptides as substrate at […] after 90 mins by microfluidic peptide phosphorylation assay
[5] = target: T2, Cytoplasmic tyrosine-protein kinase BMX (Homo sapiens) (UniProt P51813); test: Inhibition of human full length BMX expressed in baculovirus assessed as substrate phosphorylation using fluorescence-labelled peptides as substrate at 9 uM after 90 mins by microfluidic peptide phosphorylation assay
T2 sequence (whole entry): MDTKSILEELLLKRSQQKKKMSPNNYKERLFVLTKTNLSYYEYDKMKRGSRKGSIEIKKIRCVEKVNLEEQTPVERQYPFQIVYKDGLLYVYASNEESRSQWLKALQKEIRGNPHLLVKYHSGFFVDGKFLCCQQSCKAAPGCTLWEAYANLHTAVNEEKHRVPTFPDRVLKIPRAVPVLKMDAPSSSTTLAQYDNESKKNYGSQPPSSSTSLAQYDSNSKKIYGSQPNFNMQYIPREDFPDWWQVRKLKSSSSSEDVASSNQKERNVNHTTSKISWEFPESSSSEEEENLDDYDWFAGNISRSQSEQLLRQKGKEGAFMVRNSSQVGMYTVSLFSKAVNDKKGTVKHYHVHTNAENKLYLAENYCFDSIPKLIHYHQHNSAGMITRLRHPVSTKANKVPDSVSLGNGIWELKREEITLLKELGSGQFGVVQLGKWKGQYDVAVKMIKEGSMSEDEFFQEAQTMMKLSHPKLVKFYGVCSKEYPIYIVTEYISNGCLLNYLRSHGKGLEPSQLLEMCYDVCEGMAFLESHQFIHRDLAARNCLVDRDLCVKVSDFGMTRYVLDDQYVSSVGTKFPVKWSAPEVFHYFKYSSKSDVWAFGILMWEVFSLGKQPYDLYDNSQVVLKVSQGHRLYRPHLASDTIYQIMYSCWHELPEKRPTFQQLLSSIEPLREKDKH

[6] = tested on: Tyrosine-protein kinase ABL1 (Homo sapiens), P00519 [T315I]; conditions: 0.1 uM
[7] = target: T3, Serine/threonine-protein kinase BRSK2 (Homo sapiens) (UniProt Q8IWQ3); test: Inhibition of human truncated BRSK2 expressed in baculovirus assessed as substrate phosphorylation using fluorescence-labelled peptides as substrate at 0.1 uM after 90 mins by microfluidic peptide phosphorylation assay
T3 sequence (whole entry): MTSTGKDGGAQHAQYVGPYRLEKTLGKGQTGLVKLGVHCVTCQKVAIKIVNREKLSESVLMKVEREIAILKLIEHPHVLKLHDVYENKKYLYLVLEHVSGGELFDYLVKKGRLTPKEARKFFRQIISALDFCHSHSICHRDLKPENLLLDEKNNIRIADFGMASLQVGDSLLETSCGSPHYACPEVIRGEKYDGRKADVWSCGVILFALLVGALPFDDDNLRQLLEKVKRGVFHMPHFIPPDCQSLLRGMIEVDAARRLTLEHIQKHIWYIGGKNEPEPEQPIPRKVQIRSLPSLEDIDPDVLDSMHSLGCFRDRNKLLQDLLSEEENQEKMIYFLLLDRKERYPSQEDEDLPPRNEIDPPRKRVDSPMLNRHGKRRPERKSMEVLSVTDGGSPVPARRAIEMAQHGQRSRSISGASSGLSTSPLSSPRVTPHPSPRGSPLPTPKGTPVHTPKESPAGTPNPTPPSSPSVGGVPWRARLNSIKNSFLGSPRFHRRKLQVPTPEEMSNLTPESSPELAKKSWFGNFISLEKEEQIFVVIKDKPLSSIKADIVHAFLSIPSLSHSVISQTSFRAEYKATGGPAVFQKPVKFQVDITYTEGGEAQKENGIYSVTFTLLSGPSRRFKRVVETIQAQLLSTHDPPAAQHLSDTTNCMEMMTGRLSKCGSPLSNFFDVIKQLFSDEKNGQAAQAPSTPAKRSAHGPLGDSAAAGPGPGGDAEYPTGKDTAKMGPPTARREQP

[8] = target: Serine/threonine-protein kinase PAK 2 (Homo sapiens) (UniProt Q13177); test: Inhibition of human truncated PAK2 expressed in Escherichia coli cell assessed as substrate phosphorylation using fluorescence-labelled peptides as substrate at 95 uM after 90 mins by microfluidic peptide phosphorylation assay
Serine/threonine-protein kinase PAK 2 (Homo sapiens), sequence (Q13177 whole entry, the tested form may be a part): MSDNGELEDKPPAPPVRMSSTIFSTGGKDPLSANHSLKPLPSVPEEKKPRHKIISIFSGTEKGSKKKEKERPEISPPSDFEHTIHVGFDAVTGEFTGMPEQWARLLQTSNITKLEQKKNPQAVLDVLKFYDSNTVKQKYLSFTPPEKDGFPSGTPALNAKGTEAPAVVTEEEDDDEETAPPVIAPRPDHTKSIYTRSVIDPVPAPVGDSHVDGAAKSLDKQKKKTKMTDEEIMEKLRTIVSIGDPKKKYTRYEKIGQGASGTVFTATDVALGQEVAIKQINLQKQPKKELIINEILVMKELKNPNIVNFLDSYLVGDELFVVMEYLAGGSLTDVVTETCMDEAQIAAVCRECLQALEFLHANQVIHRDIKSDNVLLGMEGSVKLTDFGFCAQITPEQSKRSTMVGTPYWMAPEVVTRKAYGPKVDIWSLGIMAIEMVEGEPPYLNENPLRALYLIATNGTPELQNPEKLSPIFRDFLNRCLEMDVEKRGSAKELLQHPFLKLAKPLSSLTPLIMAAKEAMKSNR

[9] = target: RAF proto-oncogene serine/threonine-protein kinase (Homo sapiens) (UniProt P04049); test: Inhibition of human truncated c-Raf expressed in baculovirus assessed as substrate phosphorylation using fluorescence-labelled peptides as substrate at 420 uM after 90 mins by microfluidic peptide phosphorylation assay
RAF proto-oncogene serine/threonine-protein kinase (Homo sapiens), sequence (P04049 whole entry, the tested form may be a part): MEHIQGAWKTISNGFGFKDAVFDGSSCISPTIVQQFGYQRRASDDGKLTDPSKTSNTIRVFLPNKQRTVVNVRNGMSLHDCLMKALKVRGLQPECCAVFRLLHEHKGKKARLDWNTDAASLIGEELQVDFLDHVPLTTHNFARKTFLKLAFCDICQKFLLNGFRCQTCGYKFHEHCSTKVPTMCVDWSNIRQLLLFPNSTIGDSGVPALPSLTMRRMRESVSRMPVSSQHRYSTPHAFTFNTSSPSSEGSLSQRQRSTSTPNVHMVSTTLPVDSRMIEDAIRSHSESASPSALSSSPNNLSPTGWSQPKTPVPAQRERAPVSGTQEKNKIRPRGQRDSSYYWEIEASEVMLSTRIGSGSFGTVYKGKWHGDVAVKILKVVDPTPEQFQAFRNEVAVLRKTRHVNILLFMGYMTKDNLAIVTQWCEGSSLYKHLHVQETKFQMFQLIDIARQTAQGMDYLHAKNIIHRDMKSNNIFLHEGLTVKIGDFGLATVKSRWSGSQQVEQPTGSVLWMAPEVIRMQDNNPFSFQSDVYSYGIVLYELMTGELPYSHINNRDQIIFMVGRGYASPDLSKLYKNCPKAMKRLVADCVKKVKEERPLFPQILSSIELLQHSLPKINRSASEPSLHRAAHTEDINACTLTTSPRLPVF

Tyrosine-protein kinase Lyn (Homo sapiens), sequence (P07948 2-512 limits assumed): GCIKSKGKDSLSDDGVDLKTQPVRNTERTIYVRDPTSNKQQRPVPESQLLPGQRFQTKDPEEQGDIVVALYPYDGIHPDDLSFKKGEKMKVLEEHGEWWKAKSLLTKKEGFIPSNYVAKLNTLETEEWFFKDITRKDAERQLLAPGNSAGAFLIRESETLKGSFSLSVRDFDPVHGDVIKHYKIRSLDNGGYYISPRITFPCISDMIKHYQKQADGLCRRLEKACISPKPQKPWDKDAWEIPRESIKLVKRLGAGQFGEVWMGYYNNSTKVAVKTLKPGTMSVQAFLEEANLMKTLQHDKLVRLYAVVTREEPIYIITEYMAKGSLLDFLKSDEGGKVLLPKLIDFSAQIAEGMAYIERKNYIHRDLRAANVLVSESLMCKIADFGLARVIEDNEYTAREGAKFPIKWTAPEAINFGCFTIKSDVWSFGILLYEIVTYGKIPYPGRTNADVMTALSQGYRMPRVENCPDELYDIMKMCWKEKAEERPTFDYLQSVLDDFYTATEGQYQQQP

SMILES: Clc1ccc(C2(c3ccc(-c4ncnc5[nH]cnc45)cc3)CCNCC2)cc1
- inhibition [1]: 18%

SMILES: NC1CCN(c2ncnc3[nH]ccc23)CC1
- inhibition [2]: 34.5%

SMILES: COC(=O)c1cnc(Nc2cnc(C#N)cn2)cc1NCC1CCNCC1
- inhibition [3]: 2%
- inhibition [4]: 1%

SMILES: NCC1CN(c2ncnc3[nH]c4cnccc4c23)CCO1 (centres undefined)
- inhibition [5]: 11%

SMILES: C[C@H](CN(C)C)Oc1nc(Nc2cc3cccc(Cl)c3cn2)cnc1C#N
- inhibition [6]: 0%
- inhibition [7]: 28.5%

SMILES: NCCc1ccc(-c2ncnc3[nH]cnc23)cc1
- inhibition [8]: 57.5%

SMILES: c1nc(N2CCOCC2)c2nc[nH]c2n1
- inhibition [9]: 52%
